Experimental data from patent US20230293539A1, “MLL1-WDR5 PROTEIN-PROTEIN INTERACTION INHIBITOR COMPOUNDS AND USES THEREOF” (HUYABIO International, LLC, priority 2022, published 2023).

Assay: WBS (whole blood stability) assay
Type: in vitro ADME
Conditions: for % Remaining after 60 min incubation: 2 μM, 37° C.
Procedure: WBS (whole blood stability) assay: The blood samples were collected freshly from multiple species including human, monkey, dog, rat and mouse. 2 μM of test compound and positive control were incubated with the whole blood at 37° C. at 0, 10, 30, 60, and 120 minutes in duplicate. After adding the stop solution, 200 μL of supernatant were analyzed by LC-MS/MS. The % remaining of test compound and T1/2 (min) were calculated and reported.

Cc1c(F)c(N)cc(C(=O)Nc2cc(-n3cc(C(=O)N4CCN(C)CC4)nn3)c(F)cc2N2C[C@@H](C)N(C)[C@@H](C)C2)c1Cl [HYBI-084, 5-amino-2-chloro-4-fluoro-N-(4-fluoro-5-(4-(4-methylpiperazine-1-carbonyl)-1H-1,2,3-triazol-1-yl)-2-((3S,5R)-3,4,5-trimethylpiperazin-1-yl)phenyl)-3-methylbenzamide]
half-life at 2 μM (Dog whole blood): > 2.41 h
% Remaining after 60 min incubation (Dog whole blood): 94.6%
half-life at 2 μM (Human whole blood): 10.3 h
% Remaining after 60 min incubation (Human whole blood): 110%
half-life at 2 μM (Mouse whole blood): > 2.41 h
% Remaining after 60 min incubation (Mouse whole blood): 108%
half-life at 2 μM (Rat whole blood): > 2.41 h
% Remaining after 60 min incubation (Rat whole blood): 109%
